Test results reported in US20260356830A1, “COMPOUNDS FOR MODULATING RET PROTEIN” (Bristol-Myers Squibb Company, priority 2022, published 2026).

Target: T1, CCDC6-RET (Homo sapiens, UniProt P07949+Q16204+Q96SW2)
T1 construct: CCDC6 (natural N-terminal fusion partner, UniProt Q16204); endogenous in cells; host or cells: TPC-1 (parental, papillary thyroid carcinoma)
Test: Cellular RET degradation, AlphaLISA, TPC-1 cell line
Assay type: cell-based
Settings: for Dmax: TPC1, human, 24 h, read-out: Cell Density TPC-1/CCDC6-RET Ymax %; for DC50: read-out: Cell Density TPC-1/CCDC6-RET DC50, half-maximal degradation concentration, TPC-1 (CCDC6-RET), 24 hrs
Procedure, shortened: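 Luminescent AlphaLISA read of RET abundance in lysates after 24 h compound exposure (37 °C, 2% FBS DMEM) of CCDC6-RET-bearing TPC-1 cells. % degradation relative to DMSO (high) and media (low) controls, fitted to 4-parameter logistic curve for DC50 and Ymax.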

T1 sequence (Q16204+P07949 fused): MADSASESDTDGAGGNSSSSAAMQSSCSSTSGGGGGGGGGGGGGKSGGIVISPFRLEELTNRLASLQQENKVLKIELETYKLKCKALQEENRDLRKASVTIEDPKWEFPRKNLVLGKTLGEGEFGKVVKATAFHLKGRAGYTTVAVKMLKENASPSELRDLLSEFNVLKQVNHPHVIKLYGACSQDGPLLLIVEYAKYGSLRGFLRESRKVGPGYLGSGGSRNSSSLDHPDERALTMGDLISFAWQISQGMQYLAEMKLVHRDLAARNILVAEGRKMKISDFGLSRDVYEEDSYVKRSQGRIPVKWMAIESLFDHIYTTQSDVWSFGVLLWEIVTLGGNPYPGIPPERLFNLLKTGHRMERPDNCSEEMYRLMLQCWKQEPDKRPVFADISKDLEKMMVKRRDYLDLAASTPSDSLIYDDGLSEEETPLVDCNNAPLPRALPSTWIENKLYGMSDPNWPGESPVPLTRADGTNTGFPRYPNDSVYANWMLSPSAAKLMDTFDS
T1 sequence (Q96SW2 whole entry, the tested form may be a part): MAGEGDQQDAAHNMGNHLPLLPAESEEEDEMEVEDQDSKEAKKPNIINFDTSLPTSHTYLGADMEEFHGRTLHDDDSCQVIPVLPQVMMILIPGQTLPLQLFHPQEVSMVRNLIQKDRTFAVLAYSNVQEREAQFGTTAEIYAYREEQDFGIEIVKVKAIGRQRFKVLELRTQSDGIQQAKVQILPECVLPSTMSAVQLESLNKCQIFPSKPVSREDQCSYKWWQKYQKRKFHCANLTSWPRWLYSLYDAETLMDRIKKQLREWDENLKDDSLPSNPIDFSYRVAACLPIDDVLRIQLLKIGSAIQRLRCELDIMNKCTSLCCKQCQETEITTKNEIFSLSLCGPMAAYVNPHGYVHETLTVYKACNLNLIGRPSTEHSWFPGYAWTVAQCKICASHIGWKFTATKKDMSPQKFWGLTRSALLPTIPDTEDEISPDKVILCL
T1 sequence (Q16531 whole entry partner, the tested form may be a part): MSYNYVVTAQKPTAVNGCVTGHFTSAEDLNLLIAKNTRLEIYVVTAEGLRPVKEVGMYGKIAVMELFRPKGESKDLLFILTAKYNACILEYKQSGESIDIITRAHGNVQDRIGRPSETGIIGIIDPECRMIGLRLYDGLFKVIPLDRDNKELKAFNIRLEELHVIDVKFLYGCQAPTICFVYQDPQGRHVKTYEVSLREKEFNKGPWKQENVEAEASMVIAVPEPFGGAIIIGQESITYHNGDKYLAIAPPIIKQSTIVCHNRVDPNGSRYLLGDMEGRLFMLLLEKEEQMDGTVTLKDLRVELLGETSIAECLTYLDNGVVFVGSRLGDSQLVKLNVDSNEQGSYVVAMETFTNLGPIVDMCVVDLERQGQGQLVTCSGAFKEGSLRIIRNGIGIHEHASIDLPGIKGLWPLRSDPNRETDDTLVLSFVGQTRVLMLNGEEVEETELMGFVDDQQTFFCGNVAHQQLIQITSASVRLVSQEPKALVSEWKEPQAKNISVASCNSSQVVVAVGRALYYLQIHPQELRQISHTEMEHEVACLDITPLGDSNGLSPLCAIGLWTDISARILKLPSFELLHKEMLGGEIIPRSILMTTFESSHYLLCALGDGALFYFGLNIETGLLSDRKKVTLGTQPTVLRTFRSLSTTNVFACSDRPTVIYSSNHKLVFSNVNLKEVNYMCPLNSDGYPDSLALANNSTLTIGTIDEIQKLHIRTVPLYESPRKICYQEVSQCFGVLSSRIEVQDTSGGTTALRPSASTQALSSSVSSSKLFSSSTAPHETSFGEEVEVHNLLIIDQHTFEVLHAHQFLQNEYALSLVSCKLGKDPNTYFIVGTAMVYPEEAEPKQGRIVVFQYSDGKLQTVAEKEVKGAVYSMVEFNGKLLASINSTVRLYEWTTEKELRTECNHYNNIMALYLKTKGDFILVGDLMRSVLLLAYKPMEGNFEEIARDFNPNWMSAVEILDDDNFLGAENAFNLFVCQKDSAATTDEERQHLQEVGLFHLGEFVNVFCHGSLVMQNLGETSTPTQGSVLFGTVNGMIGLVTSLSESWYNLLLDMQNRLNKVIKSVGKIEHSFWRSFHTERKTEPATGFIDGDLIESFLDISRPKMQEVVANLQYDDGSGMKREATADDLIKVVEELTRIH

Structure (SMILES)	Dmax [%]	DC50 [µM]
CCOc1cc(-c2ccc(N3CCC(NC(=O)c4cc(F)ccc4F)(C(=O)NCCCCCCCCCCNc4cccc5c(N6CCC(=O)NC6=O)nn(C)c45)CC3)nc2)c2c(C#N)cnn2c1 [Example 150, 1-(5-{3-cyano-6-ethoxypyrazolo[1,5-a]pyridin-4-yl}pyridin-2-yl)-4-(2,5-difluorobenzamido)-N-(10-{[3-(2,4-dioxo-1,3-diazinan-1-yl)-1-methyl-1H-indazol-7-yl]amino}decyl)piperidine-4-carboxamide]	> 90	0.01 to 0.1
CCOc1cc(-c2ccc(N3CCC(NC(=O)c4cc(F)ccc4F)(C(=O)NCCCCCCCCNc4ccc5c(N6CCC(=O)NC6=O)nn(C)c5c4)CC3)nc2)c2c(C#N)cnn2c1 [Example 152, 1-(5-{3-cyano-6-ethoxypyrazolo[1,5-a]pyridin-4-yl}pyridin-2-yl)-4-(2,5-difluorobenzamido)-N-(8-{[3-(2,4-dioxo-1,3-diazinan-1-yl)-1-methyl-1H-indazol-6-yl]amino}octyl)piperidine-4-carboxamide]	60 to 90	0.002 to 0.01
CCOc1cc(-c2ccc(N3CCC(NC(=O)c4cc(F)ccc4F)(C(=O)NCCCCCCCCCCNc4ccc5c(N6CCC(=O)NC6=O)nn(C)c5c4)CC3)nc2)c2c(C#N)cnn2c1 [Example 153, 1-(5-{3-cyano-6-ethoxypyrazolo[1,5-a]pyridin-4-yl}pyridin-2-yl)-4-(2,5-difluorobenzamido)-N-(10-{[3-(2,4-dioxo-1,3-diazinan-1-yl)-1-methyl-1H-indazol-6-yl]amino}decyl)piperidine-4-carboxamide]	> 90	0.002 to 0.01
CCOc1cc(-c2ccc(N3CCC(NC(=O)c4cc(F)ccc4F)(C(=O)NCCCCN4CCN(c5ccc6c(c5)CN(C5CCC(=O)NC5=O)C6=O)CC4)CC3)nc2)c2c(C#N)cnn2c1 (stereo not shown) [Example 154, 1-(5-{3-cyano-6-ethoxypyrazolo[1,5-a]pyridin-4-yl}pyridin-2-yl)-4-(2,5-difluorobenzamido)-N-(4-{4-[2-(2,6-dioxopiperidin-3-yl)-1-oxo-2,3-dihydro-1H-isoindol-5-yl]piperazin-1-yl}butyl)piperidine-4-carboxamide]	60 to 90	0.01 to 0.1
CCOc1cc(-c2ccc(N3CCC(NC(=O)c4cc(F)ccc4F)(C(=O)NCCCCCCN4CCN(c5ccc6c(c5)CN(C5CCC(=O)NC5=O)C6=O)CC4)CC3)nc2)c2c(C#N)cnn2c1 (stereo not shown) [Example 155, 1-(5-{3-cyano-6-ethoxypyrazolo[1,5-a]pyridin-4-yl}pyridin-2-yl)-4-(2,5-difluorobenzamido)-N-(6-{4-[2-(2,6-dioxopiperidin-3-yl)-1-oxo-2,3-dihydro-1H-isoindol-5-yl]piperazin-1-yl}hexyl)piperidine-4-carboxamide]	60 to 90	< 0.002
CCOc1cc(-c2ccc(N3CCC(NC(=O)c4cc(F)ccc4F)(C(=O)NCCN4CCC(c5ccc6c(c5)CN(C5CCC(=O)NC5=O)C6=O)CC4)CC3)nc2)c2c(C#N)cnn2c1 (stereo not shown) [Example 156, 1-(5-{3-cyano-6-ethoxypyrazolo[1,5-a]pyridin-4-yl}pyridin-2-yl)-4-(2,5-difluorobenzamido)-N-(2-{4-[2-(2,6-dioxopiperidin-3-yl)-1-oxo-2,3-dihydro-1H-isoindol-5-yl]piperidin-1-yl}ethyl)piperidine-4-carboxamide]	60 to 90	0.002 to 0.01
CCOc1cc(-c2ccc(N3CCC(NC(=O)c4cc(F)ccc4F)(C(=O)NCCCCCCN4CCC(c5ccc6c(c5)CN(C5CCC(=O)NC5=O)C6=O)CC4)CC3)nc2)c2c(C#N)cnn2c1 (stereo not shown) [Example 157, 1-(5-{3-cyano-6-ethoxypyrazolo[1,5-a]pyridin-4-yl}pyridin-2-yl)-4-(2,5-difluorobenzamido)-N-(6-{4-[2-(2,6-dioxopiperidin-3-yl)-1-oxo-2,3-dihydro-1H-isoindol-5-yl]piperidin-1-yl}hexyl)piperidine-4-carboxamide]	> 90	0.002 to 0.01
CCOc1cc(-c2ccc(N3CCC(NC(=O)c4cc(F)ccc4F)(C(=O)NCCN4CCN(c5ccc6c(c5)C(=O)N(C5CCC(=O)NC5=O)C6)CC4)CC3)nc2)c2c(C#N)cnn2c1 (stereo not shown) [Example 158, 1-(5-{3-cyano-6-ethoxypyrazolo[1,5-a]pyridin-4-yl}pyridin-2-yl)-4-(2,5-difluorobenzamido)-N-(2-{4-[2-(2,6-dioxopiperidin-3-yl)-3-oxo-2,3-dihydro-1H-isoindol-5-yl]piperazin-1-yl}ethyl)piperidine-4-carboxamide]	60 to 90	< 0.002
CCOc1cc(-c2ccc(N3CCC(NC(=O)c4cc(F)ccc4F)(C(=O)NCCCCN4CCN(c5ccc6c(c5)C(=O)N(C5CCC(=O)NC5=O)C6)CC4)CC3)nc2)c2c(C#N)cnn2c1 (stereo not shown) [Example 159, 1-(5-{3-cyano-6-ethoxypyrazolo[1,5-a]pyridin-4-yl}pyridin-2-yl)-4-(2,5-difluorobenzamido)-N-(4-{4-[2-(2,6-dioxopiperidin-3-yl)-3-oxo-2,3-dihydro-1H-isoindol-5-yl]piperazin-1-yl}butyl)piperidine-4-carboxamide]	60 to 90	0.002 to 0.01
CCOc1cc(-c2ccc(N3CCC(NC(=O)c4cc(F)ccc4F)(C(=O)NCCCCCCN4CCN(c5ccc6c(c5)C(=O)N(C5CCC(=O)NC5=O)C6)CC4)CC3)nc2)c2c(C#N)cnn2c1 (stereo not shown) [Example 160, 1-(5-{3-cyano-6-ethoxypyrazolo[1,5-a]pyridin-4-yl}pyridin-2-yl)-4-(2,5-difluorobenzamido)-N-(6-{4-[2-(2,6-dioxopiperidin-3-yl)-3-oxo-2,3-dihydro-1H-isoindol-5-yl]piperazin-1-yl}hexyl)piperidine-4-carboxamide]	> 90	0.002 to 0.01
CCOc1cc(-c2ccc(N3CCC(NC(=O)c4cc(F)ccc4F)(C(=O)NCCN4CCC(c5ccc6c(c5)C(=O)N(C5CCC(=O)NC5=O)C6)CC4)CC3)nc2)c2c(C#N)cnn2c1 (stereo not shown) [Example 161, 1-(5-{3-cyano-6-ethoxypyrazolo[1,5-a]pyridin-4-yl}pyridin-2-yl)-4-(2,5-difluorobenzamido)-N-(2-{4-[2-(2,6-dioxopiperidin-3-yl)-3-oxo-2,3-dihydro-1H-isoindol-5-yl]piperidin-1-yl}ethyl)piperidine-4-carboxamide]	60 to 90	< 0.002
CCOc1cc(-c2ccc(N3CCC(NC(=O)c4cc(F)ccc4F)(C(=O)NCCCCN4CCC(c5ccc6c(c5)C(=O)N(C5CCC(=O)NC5=O)C6)CC4)CC3)nc2)c2c(C#N)cnn2c1 (stereo not shown) [Example 162, 1-(5-{3-cyano-6-ethoxypyrazolo[1,5-a]pyridin-4-yl}pyridin-2-yl)-4-(2,5-difluorobenzamido)-N-(4-{4-[2-(2,6-dioxopiperidin-3-yl)-3-oxo-2,3-dihydro-1H-isoindol-5-yl]piperidin-1-yl}butyl)piperidine-4-carboxamide]	60 to 90	0.01 to 0.1
CCOc1cc(-c2ccc(N3CCC(NC(=O)c4cc(F)ccc4F)(C(=O)NCCCCCCN4CCC(c5ccc6c(c5)C(=O)N(C5CCC(=O)NC5=O)C6)CC4)CC3)nc2)c2c(C#N)cnn2c1 (stereo not shown) [Example 163, 1-(5-{3-cyano-6-ethoxypyrazolo[1,5-a]pyridin-4-yl}pyridin-2-yl)-4-(2,5-difluorobenzamido)-N-(6-{4-[2-(2,6-dioxopiperidin-3-yl)-3-oxo-2,3-dihydro-1H-isoindol-5-yl]piperidin-1-yl}hexyl)piperidine-4-carboxamide]	60 to 90	0.002 to 0.01
CCOc1cc(-c2ccc(N3CCC(CN(C(=O)CCCCN4CCN(c5ccc6c(c5)CN(C5CCC(=O)NC5=O)C6=O)CC4)C(C)C)(NC(=O)c4cc(F)ccc4F)CC3)nc2)c2c(C#N)cnn2c1 (stereo not shown) [Example 164, N-[1-(5-{3-cyano-6-ethoxypyrazolo[1,5-a]pyridin-4-yl}pyridin-2-yl)-4-[(5-{4-[2-(2,6-dioxopiperidin-3-yl)-1-oxo-2,3-dihydro-1H-isoindol-5-yl]piperazin-1-yl}-N-(propan-2-yl)pentanamido)methyl]piperidin-4-yl]-2,5-difluorobenzamide]	> 90	0.002 to 0.01
CCOc1cc(-c2ccc(N3CCC(CN(C(=O)CCCCCCN4CCN(c5ccc6c(c5)CN(C5CCC(=O)NC5=O)C6=O)CC4)C(C)C)(NC(=O)c4cc(F)ccc4F)CC3)nc2)c2c(C#N)cnn2c1 (stereo not shown) [Example 165, N-[1-(5-{3-cyano-6-ethoxypyrazolo[1,5-a]pyridin-4-yl}pyridin-2-yl)-4-[(7-{4-[2-(2,6-dioxopiperidin-3-yl)-1-oxo-2,3-dihydro-1H-isoindol-5-yl]piperazin-1-yl}-N-(propan-2-yl)heptanamido)methyl]piperidin-4-yl]-2,5-difluorobenzamide]	> 90	< 0.002
CCOc1cc(-c2ccc(N3CCC(CN(C(=O)CCN4CCN(c5ccc6c(c5)C(=O)N(C5CCC(=O)NC5=O)C6)CC4)C(C)C)(NC(=O)c4cc(F)ccc4F)CC3)nc2)c2c(C#N)cnn2c1 (stereo not shown) [Example 167, N-[1-(5-{3-cyano-6-ethoxypyrazolo[1,5-a]pyridin-4-yl}pyridin-2-yl)-4-[(3-{4-[2-(2,6-dioxopiperidin-3-yl)-3-oxo-2,3-dihydro-1H-isoindol-5-yl]piperazin-1-yl}-N-(propan-2-yl)propanamido)methyl]piperidin-4-yl]-2,5-difluorobenzamide]	60 to 90	0.002 to 0.01
CCOc1cc(-c2ccc(N3CCC(CN(C(=O)CCCCN4CCN(c5ccc6c(c5)C(=O)N(C5CCC(=O)NC5=O)C6)CC4)C(C)C)(NC(=O)c4cc(F)ccc4F)CC3)nc2)c2c(C#N)cnn2c1 (stereo not shown) [Example 168, N-[1-(5-{3-cyano-6-ethoxypyrazolo[1,5-a]pyridin-4-yl}pyridin-2-yl)-4-[(5-{4-[2-(2,6-dioxopiperidin-3-yl)-3-oxo-2,3-dihydro-1H-isoindol-5-yl]piperazin-1-yl}-N-(propan-2-yl)pentanamido)methyl]piperidin-4-yl]-2,5-difluorobenzamide]	> 90	0.002 to 0.01
